Results on one compound are retold here after ChEMBL document CHEMBL1135421, “2-(Anilinomethyl)imidazolines as alpha1 adrenergic receptor agonists: the discovery of alpha1a subtype selective 2'-alkylsulfonyl-substituted analogues” (J Med Chem, 2002).

Test [1] addresses T1, Alpha-1B adrenergic receptor (Homo sapiens, UniProt P35368).
T1 sequence (P35368 whole entry): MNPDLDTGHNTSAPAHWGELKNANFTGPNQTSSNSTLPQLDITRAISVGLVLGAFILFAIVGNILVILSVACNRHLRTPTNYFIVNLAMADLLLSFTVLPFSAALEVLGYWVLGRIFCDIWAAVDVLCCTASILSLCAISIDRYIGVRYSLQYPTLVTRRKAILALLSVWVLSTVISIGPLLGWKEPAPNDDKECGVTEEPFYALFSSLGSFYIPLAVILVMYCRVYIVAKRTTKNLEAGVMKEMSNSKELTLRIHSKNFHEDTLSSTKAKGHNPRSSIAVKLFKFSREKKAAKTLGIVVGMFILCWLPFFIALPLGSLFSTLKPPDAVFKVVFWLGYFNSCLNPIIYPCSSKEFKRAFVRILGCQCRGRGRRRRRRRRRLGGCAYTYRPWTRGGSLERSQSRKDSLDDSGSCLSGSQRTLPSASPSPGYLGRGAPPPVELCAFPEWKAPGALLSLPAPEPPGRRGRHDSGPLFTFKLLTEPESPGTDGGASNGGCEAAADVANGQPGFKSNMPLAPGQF
Kind of test: Affinity to human Alpha-1B adrenergic receptor determined by radioligand binding techniques from rat-1 fibroblasts membranes.

The target of test [2] is T2, Alpha-1A adrenergic receptor (Homo sapiens, UniProt P35348).
T2 sequence (P35348 whole entry): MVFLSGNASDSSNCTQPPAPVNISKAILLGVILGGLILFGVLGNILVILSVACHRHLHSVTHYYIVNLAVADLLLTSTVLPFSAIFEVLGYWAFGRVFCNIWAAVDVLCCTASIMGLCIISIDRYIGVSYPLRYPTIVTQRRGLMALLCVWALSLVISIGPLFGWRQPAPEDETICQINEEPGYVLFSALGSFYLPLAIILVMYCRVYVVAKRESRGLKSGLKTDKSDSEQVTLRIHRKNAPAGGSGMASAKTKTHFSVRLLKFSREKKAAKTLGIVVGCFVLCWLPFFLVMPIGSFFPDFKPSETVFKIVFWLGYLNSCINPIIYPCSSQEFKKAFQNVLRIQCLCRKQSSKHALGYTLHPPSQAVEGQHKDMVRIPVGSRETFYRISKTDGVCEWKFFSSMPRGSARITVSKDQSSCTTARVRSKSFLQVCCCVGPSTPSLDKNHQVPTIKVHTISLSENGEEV
Description: Affinity to Alpha-1 adrenergic receptor determined by radioligand binding techniques from rat-1 fibroblasts membranes.

Test [3] has as its target T3, Alpha-2B adrenergic receptor (Homo sapiens, UniProt P18089).
T3 sequence (P18089 whole entry): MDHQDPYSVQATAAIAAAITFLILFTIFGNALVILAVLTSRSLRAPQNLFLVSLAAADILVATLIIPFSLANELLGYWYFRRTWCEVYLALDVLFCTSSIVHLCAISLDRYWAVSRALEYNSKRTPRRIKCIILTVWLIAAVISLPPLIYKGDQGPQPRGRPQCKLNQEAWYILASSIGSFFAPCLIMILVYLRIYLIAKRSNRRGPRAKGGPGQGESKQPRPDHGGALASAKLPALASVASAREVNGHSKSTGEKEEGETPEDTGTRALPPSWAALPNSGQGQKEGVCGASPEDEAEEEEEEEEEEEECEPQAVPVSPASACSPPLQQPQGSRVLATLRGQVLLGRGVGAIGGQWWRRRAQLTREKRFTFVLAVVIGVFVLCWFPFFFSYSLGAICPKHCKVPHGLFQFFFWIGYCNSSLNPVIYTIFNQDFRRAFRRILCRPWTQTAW
Description: Affinity to human Alpha-2B adrenergic receptor determined by radioligand binding techniques from chinese hamster ovary (CHO) cells. The format is cell-based.

Test [4] deals with T4, Alpha-2C adrenergic receptor (Homo sapiens, UniProt P18825).
T4 sequence (P18825 whole entry): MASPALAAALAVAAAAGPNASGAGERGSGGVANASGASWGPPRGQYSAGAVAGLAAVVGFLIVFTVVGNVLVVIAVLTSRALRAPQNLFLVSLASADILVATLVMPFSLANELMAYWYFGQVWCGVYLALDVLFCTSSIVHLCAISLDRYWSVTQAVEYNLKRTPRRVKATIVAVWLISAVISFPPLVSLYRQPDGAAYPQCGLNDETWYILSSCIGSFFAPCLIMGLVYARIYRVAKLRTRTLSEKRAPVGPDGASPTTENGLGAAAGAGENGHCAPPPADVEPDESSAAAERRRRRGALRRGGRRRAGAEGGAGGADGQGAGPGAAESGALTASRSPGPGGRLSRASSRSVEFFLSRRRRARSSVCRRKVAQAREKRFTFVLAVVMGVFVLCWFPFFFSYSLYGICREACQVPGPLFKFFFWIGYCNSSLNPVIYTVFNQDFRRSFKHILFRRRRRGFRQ
Kind of test: Affinity to human Alpha-2C adrenergic receptor determined by radioligand binding techniques from chinese hamster ovary (CHO) cells. Format: cell-based.

The target in test [5] is T5, Alpha-1D adrenergic receptor (Homo sapiens, UniProt P25100).
T5 sequence (P25100 whole entry): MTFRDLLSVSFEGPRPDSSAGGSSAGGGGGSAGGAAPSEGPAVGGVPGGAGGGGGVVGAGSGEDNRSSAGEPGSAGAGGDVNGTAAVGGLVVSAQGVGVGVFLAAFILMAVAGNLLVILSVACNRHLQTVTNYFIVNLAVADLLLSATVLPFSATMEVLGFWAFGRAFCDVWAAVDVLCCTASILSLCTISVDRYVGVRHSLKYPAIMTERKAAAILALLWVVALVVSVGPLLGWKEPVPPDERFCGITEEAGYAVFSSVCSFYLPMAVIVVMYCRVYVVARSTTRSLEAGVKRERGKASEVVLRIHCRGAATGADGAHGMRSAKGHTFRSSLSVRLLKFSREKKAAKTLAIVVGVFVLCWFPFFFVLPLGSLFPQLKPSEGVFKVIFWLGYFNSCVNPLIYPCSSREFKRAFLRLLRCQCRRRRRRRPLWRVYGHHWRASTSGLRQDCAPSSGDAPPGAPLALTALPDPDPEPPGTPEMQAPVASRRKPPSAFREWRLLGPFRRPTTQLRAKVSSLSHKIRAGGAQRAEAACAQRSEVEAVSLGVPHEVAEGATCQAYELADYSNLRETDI
Description: Affinity to human Alpha-1D adrenergic receptor determined by radioligand binding techniques from rat-1 fibroblasts membranes.

Test [6] concerns the target T6, Alpha-2C adrenergic receptor (Homo sapiens) (UniProt P18825).
T6 sequence (whole entry): T4 sequence (P18825 whole entry)
Kind of test: Efficacy as percentage of the maximal effect observed for nonselective agonist UK-14304 in CHO cells expressing human Alpha-2C adrenergic receptor. Format: functional, cell-based.

As for `CCSc1ccccc1NCC1=NCCN1`, the Ki in test [1] was 75.9 nM; in test [2], 43.7 nM; in test [3], 1620 nM; in test [4], 269 nM; in test [5] it was 57.5 nM. In test [6], the Max was 101%.

In general, Ki refers to a measure of affinity in units of concentration, obtained from inhibition or displacement. The low end stands for a stronger hold on the target, the high end for a looser hold on the target.
